The record followed here is patent US20120122936A1, “LEAVE-ON NONSOLID SKIN CONDITIONING COMPOSITIONS CONTAINING 12-[(12-HYDROXYOCTADECANOYL)OXY] OCTADECANOIC ACID” (CONOPCO, INC., D/B/A UNILEVER, priority 2010, published 2012).

Data set [1] is described as follows: Observation of mixtures with lipophilic cosmetically acceptable carriers (gelling vs flowable liquid). The following applies: for Result of mixtures with indicated carriers: 10% in 90% carrier, summary of Table 3. In kind it is physicochemical. On the procedure:
Various mixtures were prepared with common lipohilic cosmetically acceptable carrier that are liquid at temperatures up to 40° C. Observation were recorded in Table 3.

Data set [2] relates to primary human neonatal fibroblasts. As to the kind of experiment: ATP production by primary human fibroblasts, CellTiter-Glo luminescent cell viability assay. In kind it is cell-based. The following applies: for Luminescence reading (average): 2 x 24 h dosing, 4 wells, 0.1% DMSO control 2245457; for Effect on fibroblast energy production (ATP, luminescence readings): statistically significant improvement at 100 μM. On the procedure:
The effect of 12HSA and 12-[(12-hydroxyoctadecanoyl)oxy]octadecanoic acid on ATP production by primary human fibroblasts was assayed.
The samples were prepared as in Example 2, except the final concentrations were at 0.1 μM, 1 μM, 10 μM, 100 μM for both compounds. Again 0.1% DMSO in media is used as the vehicle control. Primary human neonatal fibroblasts grown in DMEM medium (high glucose supplemented with 2 mM Lglutamine, 10% fetal bovine serum, antibiotic) to 70% confluency, trypsinized, and re-suspended in medium. 7,500 cells seeded per well in the inner 60 wells of a 96-well plate in the same DMEM medium and grown for 3 days. The medium removed and the cells washed with serum-free DMEM, and then dosed with 200 μl serum-free DMEM medium containing appropriate concentrations of the testing compounds. Each dosing was replicated in 4 wells. After 24 hours, test compound solution was removed and the cells were treated with a fresh solution of the same treatment. After another 24 hours, the ATP production of the cultures was assayed by CellTiter-Glo luminescent Cell viability assay (Promega #G7572) and luminescence readings measured. Average readings were calculated for every treatment.
Statistical analysis was done by student t-Test with the assumption that the two samples had two tailed distribution with equal variance.
(In ATP-based viability assays light output follows the ATP content of the culture.)

For data set [3], the system named is primary human keratinocytes. Nature of the data set: Involucrin expression (differentiation) in primary human keratinocytes, Western blot. The data set is classed as cell-based. The following applies: for Involucrin expression (arbitrary unit) at day 1: day 1 (24 h), 0.1% DMSO control 27.85; for Involucrin expression (arbitrary unit) at day 2: day 2 (48 h), 0.1% DMSO control 33.91; for Effect on human keratinocyte differentiation (involucrin expression compared to vehicle control): vs 0.1% DMSO, day 2. How it is done:
The effect of 12HSA and 12-[(12-hydroxyoctadecanoyl)oxy]octadecanoic acid on differentiation in primary human keratinocytes was evaluated.
The compounds were dissolved in DMSO at 10 mM as the initial stock solutions and then diluted to appropriate final concentrations, 0.1 μM, 1 μM, 10 μM for 12-[(12-hydroxyoctadecanoyl)oxy]octadecanoic acid and 1 μM, 10 μM for the monomer with culture medium for treatments. 0.1% DMSO was used as the vehicle control. Primary human keratinocytes (Passage 2) grown to 70% confluency in EpiLife medium (Gibco MEP1500CA, 0.06 mM Calcium), trypsinized, cell number counted and Re-suspended in medium to make final cell counts at 5×10^4/ml. 100, 000 cells seeded per well in a 6 well plate. The cells again grown to 70% confluency, and then treated with 12-HSA monomer, 12-[(12-hydroxyoctadecanoyl)oxy]octadecanoic acid, and 0.1% DMSO as control. Treated cells incubated for 24 h and 48 h, and harvested at the corresponding time points. Proteins were extracted from the cultures and protein concentration was quantified by Quick start Bradford dye reagent (BioRad #500-0205). 5 ug protein samples were subjected to 4-20% protein gel (BioRad Criterion #345-0034), separated by running gel at 175 Volt for about 1 hour. Proteins were transferred to PVDF membrane (iBlot Gel transfer stacks PVDF, Invitrogen IB4010-01). The PVDF membrane was blocked in 1% BSA/PBS for 30 min and incubated with involucrin primary antibody (1:4000 dilution) in 1% BSA/PBS at 4° C. O/N (Sigma 19018), washed three times with TBS-Tween (Sigma T-9039) for 15 min each. The membrane then incubated with a secondary antibody in 1% BSA/PBS at RT for 1 h (Cy5-conjugated Affipure Goat anti mouse IgG, Jackson ImmunoResearch Lab #115-175-003), washed three times with TBS-Tween for 15 min each, and scanned with Licor/Odyssey (Li-Cor Bioscience). The images obtained were analyzed for the involucrin bands for signal intensity by Odyssey v3.0 analysis program (Li-Cor Bioscience).
Background: In western blotting, separated proteins are transferred to a membrane and probed.

With `CCCCCCC(O)CCCCCCCCCCC(=O)OC(CCCCCC)CCCCCCCCCCC(=O)O` (stereo not shown) [12-[(12-hydroxyoctadecanoyl)oxy]octadecanoic acid], the Observations entry is listed as “flowable” in data set [1] (10% in 90% DC200-10cS); “liquid” in data set [1] (10% in 90% Isopropyl myristate); “flowable” in data set [1] (10% in 90% Light Mineral Oil); “clear” in data set [1] (10% in 90% Sunflower seed oil); “clear” in data set [1] (10% in 90% Tween40); “flowable” in data set [1] (10% in 90% cyclomethicone-D5). The Observations result in data set [1] (10% in 90% isostearyl alcohol) and in data set [1] (10% in 90% oleic acid) was “clear” throughout. The “Result of mixtures with indicated carriers” value in data set [1] is recorded as “flowable, or even clear, liquids”. The “Luminescence reading (average)” value turned out to be 2261382 in data set [2] (0.1 μM), 2550326 in data set [2] (1 μM), 2594799 in data set [2] (10 μM) and 2794979 in data set [2] (100 μM). In data set [2], the “Effect on fibroblast energy production (ATP, luminescence readings)” value was “stimulated fibroblast energy production”. Moreover, the “Involucrin expression (arbitrary unit) at day 1” value in data set [3] (0.1 μM) turned out to be 35.85 arbitrary unit; in data set [3] (1 μM), 36.67 arbitrary unit; in data set [3] (10 μM) it was 33.77 arbitrary unit. Also, the results for the “Involucrin expression (arbitrary unit) at day 2” value in data set [3] (0.1 μM), in data set [3] (1 μM) and in data set [3] (10 μM) were 32.61 arbitrary unit, 33.14 arbitrary unit and 29.46 arbitrary unit, respectively. Moreover, the “Effect on human keratinocyte differentiation (involucrin expression compared to vehicle control)” value in data set [3] was “did not have an effect”.
Consider `CCCCCCC(O)CCCCCCCCCCC(=O)O` (stereo not shown) [12HSA, 12-hydroxyoctadecanoic acid, reference compound], for which the Observations entry in data set [1] (10% in 90% DC200-10cS) was “paste”; in data set [1] (10% in 90% Isopropyl palmitate), “hard gel”; in data set [1] (10% in 90% Light Mineral Oil), “hard gel”; in data set [1] (10% in 90% Sunflower seed oil), “hard gel”; in data set [1] (10% in 90% Tween40), “gel”; in data set [1] (10% in 90% cyclomethicone-D5) it was “soft gel”. Besides, the Observations result in data set [1] (10% in 90% isostearyl alcohol) and in data set [1] (10% in 90% oleic acid) was “gel” throughout. Moreover, in data set [1], the “Result of mixtures with indicated carriers” value is on record as “gelled the carrier”. Moreover, the “Luminescence reading (average)” value amounted to 2359722 in data set [2] (0.1 μM), 2398308 in data set [2] (1 μM), 2304763 in data set [2] (10 μM) and 2151797 in data set [2] (100 μM). Further, the “Effect on fibroblast energy production (ATP, luminescence readings)” value in data set [2] is listed as “did not”. In addition, the results for the “Involucrin expression (arbitrary unit) at day 1” value in data set [3] (1 μM) and in data set [3] (10 μM) were 26.7 arbitrary unit and 34.51 arbitrary unit, respectively. In addition, the entries for the “Involucrin expression (arbitrary unit) at day 2” value in data set [3] (1 μM) and in data set [3] (10 μM) were 56.03 arbitrary unit and 69.52 arbitrary unit, respectively. In addition, in data set [3], the “Effect on human keratinocyte differentiation (involucrin expression compared to vehicle control)” value is “stimulated human keratinocyte differentiation”.
